# Measurements taken from article PMC9820430, “New Affordable Methods for Large-Scale Isolation of Major Olive Secoiridoids and Systematic Comparative Study of Their Antiproliferative/Cytotoxic Effect on Multiple Cancer Cell Lines of Different Cancer Origins” (International Journal of Molecular Sciences, 2022).
# Where two headings read alike, the source gives them in different places.
# Tests used:
# A2058 = experiment: EdU incorporation cell proliferation assay, 24 h; type: cell-based, human; settings: for % EdU +ve ± SE (S-phase cells): 24 h treatment at EC50 concentration
# Procedure: For this purpose, ten cancer cell lines (i.e., MDA-MB 231, SK-BR-3, MCF-7, A2058, SK-MEL-28, AGS, HepG-2, PANC-1, H1299 and Hela) originating from breast, melanoma, stomach, hepatic, pancreatic, lung and cervical tumors were analyzed in parallel with control samples (i.e., the same cells treated only with 0.2% (v/v) DMSO). […] Subsequently, the treated cells were allowed to incorporate 5-ethynyl-2′-deoxyuridine (EdU) into replicating DNA according to the protocol described in detail in the Experimental Section. EdU, a thymidine analog, can be incorporated into DNA in vivo and detected later by using copper-catalyzed azide–alkyne cycloaddition (click reaction) without prior DNA denaturation. The pool of cells in the S phase can be then easily detected by fluorescence (FL) microscopy or by flow cytometry by analyzing the incorporation of EdU in replicating DNA of single cells. In this study, after EdU incorporation, the nuclei of the entire cell population were stained with Hoechst and imaged by confocal microscopy (Experimental Section). EdU-positive nuclei, marked by green FL, as well as the total number of nuclei, marked by blue FL, were enumerated by applying the Icy image analysis algorithm on the digital images acquired by confocal microscopy.
# Human cancer cells were plated onto sterile glass coverslips (10-mm diameter, 5161063, ThermoFisher Scientific, Waltham, MA, USA) in 24-well tissue culture plates, at a density 5 times the density of cells seeded in 96-well plate and at a final medium volume of 500 μL. In order to obtain homogeneous plating, 250 μL of the medium was added directly to the wells already containing coverslips. Using a tip perpendicularly, coverslips were pressed in order to ensure their attachment to the bottom of the well. The cells were then seeded by adding 250 μL of single-cell suspension drop by drop following a cross path. Immediately after seeding, the plate was shaken back and forth at least ten times to achieve homogeneous plating. The cells were allowed to adhere overnight (~16 h) at 37 °C and 5% (v/v) CO2. The next day, a volume of 500 μL fresh medium was added to each well and the treatment with OOPs was initiated by adding directly to the wells 2 μL of OOPs from the 500× stock in DMSO and immediately mixed afterward by pipetting. […] Control cells were prepared under the same experimental conditions using DMSO instead of the OOPs’ solutions in DMSO at the same final concentration (0.2% (v/v) DMSO). […] Each condition was performed in duplicate. After treatment with the OOPs, live proliferating mammalian cells were labeled with 5-ethynyl-2’-deoxyuridine (EdU), a nucleoside analog of thymidine, using the Cell proliferation kit III (EdU-FM, PK-CA724-488FM, Promokine, Heidelberg, Germany). More specifically, a 20 μM EdU solution from a 10 mM stock in DMSO was prepared in a fresh culture medium. Culture supernatant was removed from treated cells to leave only 250 μL. An equal volume of 20 μM EdU solution was added and mixed with the medium to obtain a 10 μΜ EdU final concentration. The treated cells were incubated for the desired time of pulse length (2–4 h) under conditions optimal for each cell type depending on each cell line’s doubling time. Following incubation, cells were washed twice with PBS, then fixed with 4% (w/v) paraformaldehyde in PBS for 15 min at room temperature (RT), and subsequently washed twice with 3% (w/v) BSA for 5 min each time. Cells were permeabilized by incubation (20 min, RT, in the dark) with 0.5% (v/v) Triton-X 100 in PBS. Following permeabilization the cells were washed twice with 3% (w/v) BSA in PBS and incubated for 30 min with the reaction cocktail, according to the instructions of the Cell proliferation kit III (EdU-488; FM). After staining for replicating DNA, the cells were washed three times with 3% (w/v) BSA in PBS, and were then incubated (10 min, at RT) with Hoechst 33342 in PBS (1:10.000) to visualize all the nuclei. […]
# [1] = system: sixteen human cancer cell lines originating from eight different tissues; experiment: ATP-based luminescence cell viability assay, whole panel; settings: for Bioactivity range on cancer cell lines (grade in words): Figure 3, sixteen cancer cell lines; for EC50: 72 h treatment
# Procedure: The antiproliferative/cytotoxic effects of the selected OOPs on each cell line were assessed by measuring the cellular ATP levels after 72 h treatments using an ATP-based luminescence assay. This assay, initially developed as a tumor chemosensitivity assay, has shown considerable promise as a general in vitro toxicity assay due to its high sensitivity that allows the detection of a small number of cells. Consequently, it can be applied to both cancer cell lines and primary tissue cells. […] The EC50 values were calculated by nonlinear regression (curve fit) using a sigmoidal dose–response equation (Figure 2A and Figure S2).
# The OOPs tested in this study were first dissolved in an appropriate DMSO volume such as to prepare a final stock solution of 50 mM, which was further used to prepare various compound concentrations in DMSO-based solutions. The final DMSO concentration in the cell culture was maintained constant in all treated groups of any given experiment and never exceeded the value of 0.2% (v/v). For the treatment experiments, cells were plated in 96-well culture plates, in 100 μL of complete medium at a seeding density of 5000–10,000 cells/well—depending on cells’ size and doubling time—and were allowed to adhere overnight (~16 h). The next day, 150 μL of complete medium was added to each well and the cells were treated with various concentrations of OOPs. Each concentration was tested in triplicate and was repeated 2–3 times. To prepare the final concentration solutions, 0.5 μL of a 500× stock of each tested compound in DMSO was added directly into each well in a final volume of 250 μL culture medium and was gently mixed by pipetting. Control wells were prepared under the same experimental conditions by adding only DMSO at a final concentration of 0.2% (v/v). Compounds were not renewed during the entire period of cell exposure. All cells were cultured at 37 °C in a 5% (v/v) CO2 for 24, 48 or 72 h.
# Briefly, after the treatment with OOPs, the adapted medium was removed from the dish wells and the cells were washed twice with medium without FBS. Then, the C-lysis (LT27-076) was diluted in PBS (1:2) and a volume of 50 μL was added to each well. Cells were incubated with C-lysis for at least 10 min. Finally, an equal volume of lysed cells from each well and ATP monitoring reagent (AMR; LT27-212) was transferred to the wells of a white-walled illuminometer plate (Greiner bio-one; 655074). Cell viability was quantified by measuring luminescence using a multi-mode microplate reader Safire^2 Tecan (software Magellan V6.00 STD.2PC WIN.20000/XP).
# HaCaT cells = system: HaCaT cells; parameters: method as in PMID 27878290, PMID 35630786; settings: cited from earlier work
# A375 cells = system: A375 cells; parameters: method as in PMID 35630786; settings: 72 h treatment; cited from earlier work
# [2] = Homo sapiens, range across cancer cell lines, read-out: EC50, range over the cancer cell lines
Molecule,"% Inhibition ± SE of cell proliferation (A2058; 24 h at EC50, normalized with the control)",% EdU +ve ± SE (S-phase cells) (A2058),Bioactivity range on cancer cell lines (grade in words) [1],"EC50 [1, 2]","EC50 ([1]; Homo sapiens, most cancer cell lines, read-out: EC50 in most cancer cell lines)",sensitivity of cells to treatment (HaCaT cells),EC50 (A375 cells),"EC50 ([1]; range across cancer cell lines, read-out: EC50, range over the cancer cell lines)"
"COC(=O)C1=COC(C)[C@@H](C=O)[C@@H]1CC(=O)OCCc1ccc(O)c(O)c1 (mixture of isomers) [3a,b, oleuropein aglycone]",15.0 ± 10.3%,23.7 ± 5.8%,Very strong activity on 7/16 cancer cell lines,11.9 to 50.1 µM,–,–,–,–
"C/C=C(/C=O)[C@@H](CC=O)CC(=O)OCCc1ccc(O)cc1 [compound 1, oleocanthal]",–,25.5 ± 5.3%,Very strong activity on 10/16 cancer cell lines,9.1 to 44.6 µM,9 to 20 µM,resistant,67.5 ± 1.9 µM,–
"C/C=C(/C=O)[C@@H](CC=O)CC(=O)OCCc1ccc(O)c(O)c1 [compound 2, oleacein]",–,–,Good/moderate activity on 9/16 cancer cell lines,> 25 µM,–,resistant,113 ± 4.9 µM,–
"ligstroside aglycone [4a,b]",–,–,Very strong activity on lung cancer cell lines,–,–,–,–,11.6 to 98.2 µM
